According to patent US10980813B2, “Antifungal composition” (SEED RESEARCH INSTITUTE CO., LTD., priority 2017, dated 2021):
In brackets after ≈: the same amount, converted by molar mass.

Experiments:
Assay in all cases: Antifungal activity, MIC by disc (diffusion) method
C. parapsilosis = type: cell-based, Candida parapsilosis; conditions: Lodderomyces parapsilosis, YMG agar, 24 hr at 28° C., read-out: MIC (minimum inhibitory concentration) C. parapsilosis
Method: (§1) Measurement Method of Antifungal Activity in Various Compounds
(§2) The minimum inhibitory concentration (MIC) was measured by a disc method (diffusion method). The disc method is one kind of the diffusion method, and is a method in which filter paper (disc) impregnated with an antifungal substance at a given concentration is placed on an agar medium (test plate) coated with a test bacterium and cultivated. The disc absorbs water in the medium, diffuses the antifungal substance and forms a given concentration gradient. As a result, the test bacterium forms a growth inhibition zone (circle) in the periphery of the disc, and the level of sensitivity to the antifungal substance is determined from the diameter of the inhibition circle.
(§3) Using the aforementioned method, MIC of various compounds was measured.
(§4) i: In a 100 mL flask, 20 mL of YMG or Mueller Hinton medium is produced.
(§5) ii: A loopful of the test bacterium is dissolved in the medium.
(§6) iii: The medium is cultured at 200 rpm for 24 hr in a rotary shaker set to 28° C.
(§7) i: In a 300 mL flask, 100 mL of YMG or Mueller Hinton agar medium (low melting point agar) is produced.
(§8) ii: After cooling to 37° C.-40° C., preculture medium (1 mL) is added and the mixture is agitated.
(§9) iii: The mixture is dispensed to a square petri dish (size: 100*150*17 mm) by 20 mL each.
(§10) iv: The dish is stood at room temperature until the agar is solidified.
(§11) i: The compound is diluted in ½ dilution series in 10 stages (timely changed according to compound), 50 μL of solution/pulp at each dilution stage is produced, the organic solvent is dried at room temperature and placed on a test plate.
(§12) ii: After culturing T. rubrum for 48 hr and other test bacteria for 24 hr at 28° C. in an incubator, the size of the inhibition circle was measured.
(§13) The medium composition for culture which was used for the aforementioned preculture is shown below.
(§14) [Medium Compositions for Preculture and Test Plate]
(§15) <<YMG Medium>>: For Fungus
(§16) Agar, powder 0.8% * added only when producing test plate

A. fumigatus = type: cell-based; conditions: Aspergillus fumigatus, YMG agar, 24 hr at 28° C., read-out: MIC (minimum inhibitory concentration) A. fumigatus
Method: as §1, §2, §3, §4, §5, §6, §7, §8, §9, §10, §11, §12, §13, §14, §15, §16

T. rubrum = type: cell-based; conditions: Trichophyton rubrum, YMG agar, 48 hr at 28° C., read-out: MIC (minimum inhibitory concentration) T. rubrum
Method: as §1, §2, §3, §4, §5, §6, §7, §8, §9, §10, §11, §12, §13, §14, §15, §16

T. mentagrophytes = type: cell-based; conditions: Trichophyton mentagrophytes, YMG agar, 24 hr at 28° C., read-out: MIC (minimum inhibitory concentration) T. mentagrophytes
Method: as §1, §2, §3, §4, §5, §6, §7, §8, §9, §10, §11, §12, §13, §14, §15, §16

Saccharomyces = type: cell-based; conditions: YMG agar, 24 hr at 28° C., read-out: MIC (minimum inhibitory concentration) Saccharomyces
Method: as §1, §2, §3, §4, §5, §6, §7, §8, §9, §10, §11, §12, §13, §14, §15, §16

| SMILES | MIC (C. parapsilosis) [µg/mL] | MIC (A. fumigatus) [µg/mL] | MIC (T. rubrum) [µg/mL] | MIC (T. mentagrophytes) [µg/mL] | MIC (Saccharomyces) [µg/mL] |
| --- | --- | --- | --- | --- | --- |
| O=S1(=O)N=CC2=COc3ccc(Cl)cc3C2=N1 [I-6c] | 4 (≈ 14.9 µM) | 4 (≈ 14.9 µM) | 1 (≈ 3.72 µM) | 1 (≈ 3.72 µM) | 4 (≈ 14.9 µM) |
| CCC1=NS(=O)(=O)OC1CC (stereo not drawn) [I-3b] | 4 (≈ 22.6 µM) | 4 (≈ 22.6 µM) | 2 (≈ 11.3 µM) | 2 (≈ 11.3 µM) | 4 (≈ 22.6 µM) |
| COc1ccc2c(c1)C1ON1S(=O)(=O)O2 (stereo not drawn) [II-1d] | 8 (≈ 34.9 µM) | 8 (≈ 34.9 µM) | 2 (≈ 8.73 µM) | 2 (≈ 8.73 µM) | 8 (≈ 34.9 µM) |
| CC1=CC(c2ccccc2)=NS(=O)(=O)N1 [I-2c] | 8 (≈ 36 µM) | 8 (≈ 36 µM) | 2 (≈ 9 µM) | 2 (≈ 9 µM) | 8 (≈ 36 µM) |
| CC1=NS(=O)(=O)Nc2ccccc21 [I-1k] | 8 (≈ 40.8 µM) | 8 (≈ 40.8 µM) | 2 (≈ 10.2 µM) | 2 (≈ 10.2 µM) | 8 (≈ 40.8 µM) |
| O=S1(=O)N=C(CCc2ccc(F)cc2)C2ON21 (stereo not drawn) [II-4c] | 8 (≈ 31.2 µM) | 8 (≈ 31.2 µM) | 2 (≈ 7.8 µM) | 2 (≈ 7.8 µM) | 8 (≈ 31.2 µM) |
| CC1=NS(=O)(=O)N=C1C [I-4b] | 16 (≈ 109 µM) | 16 (≈ 109 µM) | 4 (≈ 27.4 µM) | 4 (≈ 27.4 µM) | 16 (≈ 109 µM) |
| CC12ON1S(=O)(=O)Nc1ccccc12 (stereo not drawn) [II-1k] | 8 (≈ 37.7 µM) | 8 (≈ 37.7 µM) | 2 (≈ 9.42 µM) | 2 (≈ 9.42 µM) | 8 (≈ 37.7 µM) |
| O=S1(=O)N=C2C(=COc3ccc(Cl)cc32)C2ON21 (stereo not drawn) [II-6c] | 4 (≈ 14.1 µM) | 4 (≈ 14.1 µM) | 1 (≈ 3.51 µM) | 1 (≈ 3.51 µM) | 4 (≈ 14.1 µM) |
| O=S1(=O)N=CC(CCc2ccc(Cl)cc2)=N1 [I-4d] | 8 (≈ 31.2 µM) | 8 (≈ 31.2 µM) | 2 (≈ 7.79 µM) | 2 (≈ 7.79 µM) | 8 (≈ 31.2 µM) |
| O=[N+]([O-])c1cc(Cl)cc2c1OS(=O)(=O)N=C2 [I-1i] | 4 (≈ 15.2 µM) | 4 (≈ 15.2 µM) | 1 (≈ 3.81 µM) | 1 (≈ 3.81 µM) | 4 (≈ 15.2 µM) |
| CC1OS(=O)(=O)N2OC12C (stereo not drawn) [II-3a] | 4 (≈ 24.2 µM) | 4 (≈ 24.2 µM) | 2 (≈ 12.1 µM) | 2 (≈ 12.1 µM) | 4 (≈ 24.2 µM) |
| O=S1(=O)N2OC2c2nccn21 (stereo not drawn) [II-5a] | 8 (≈ 46.2 µM) | 8 (≈ 46.2 µM) | 2 (≈ 11.6 µM) | 2 (≈ 11.6 µM) | 8 (≈ 46.2 µM) |
| O=S1(=O)N=C(CCc2ccc(Cl)cc2)C2ON21 (stereo not drawn) [II-4d] | 8 (≈ 29.3 µM) | 8 (≈ 29.3 µM) | 2 (≈ 7.33 µM) | 2 (≈ 7.33 µM) | 8 (≈ 29.3 µM) |
| O=S1(=O)OCC2(c3ccc(Cl)cc3)ON21 (stereo not drawn) [II-3d] | 8 (≈ 32.3 µM) | 8 (≈ 32.3 µM) | 2 (≈ 8.08 µM) | 2 (≈ 8.08 µM) | 8 (≈ 32.3 µM) |
| O=S1(=O)N2OC2c2cccn21 (stereo not drawn) [II-5b] | 16 (≈ 92.9 µM) | 16 (≈ 92.9 µM) | 4 (≈ 23.2 µM) | 4 (≈ 23.2 µM) | 16 (≈ 92.9 µM) |
| CCCCCCCCN1CC2(c3ccccc3)ON2S1(=O)=O (stereo not drawn) [II-3e] | 8 (≈ 24.7 µM) | 8 (≈ 24.7 µM) | 2 (≈ 6.16 µM) | 2 (≈ 6.16 µM) | 8 (≈ 24.7 µM) |
| COc1ccc2c(c1)C=NS(=O)(=O)O2 [I-1d] | 8 (≈ 37.5 µM) | 8 (≈ 37.5 µM) | 2 (≈ 9.38 µM) | 2 (≈ 9.38 µM) | 8 (≈ 37.5 µM) |
| CC1=CC(C)=NS(=O)(=O)N1 [I-2b] | 16 (≈ 99.9 µM) | 16 (≈ 99.9 µM) | 2 (≈ 12.5 µM) | 2 (≈ 12.5 µM) | 16 (≈ 99.9 µM) |
| O=[N+]([O-])c1cc(Cl)cc2c1OS(=O)(=O)N1OC21 (stereo not drawn) [II-1i] | 4 (≈ 14.4 µM) | 4 (≈ 14.4 µM) | 1 (≈ 3.59 µM) | 1 (≈ 3.59 µM) | 4 (≈ 14.4 µM) |
| O=[N+]([O-])c1ccc2c(c1)C=NS(=O)(=O)O2 [I-1e] | 4 (≈ 17.5 µM) | 4 (≈ 17.5 µM) | 1 (≈ 4.38 µM) | 1 (≈ 4.38 µM) | 4 (≈ 17.5 µM) |
| O=S1(=O)N=CC(CCc2ccc(F)cc2)=N1 [I-4c] | 8 (≈ 33.3 µM) | 8 (≈ 33.3 µM) | 2 (≈ 8.32 µM) | 2 (≈ 8.32 µM) | 8 (≈ 33.3 µM) |
| CC1=CC2(c3ccccc3)ON2S(=O)(=O)N1 (stereo not drawn) [II-2c] | 8 (≈ 33.6 µM) | 8 (≈ 33.6 µM) | 2 (≈ 8.39 µM) | 2 (≈ 8.39 µM) | 8 (≈ 33.6 µM) |
| CCC1OS(=O)(=O)N2OC12CC (stereo not drawn) [II-3b] | 4 (≈ 20.7 µM) | 4 (≈ 20.7 µM) | 2 (≈ 10.4 µM) | 2 (≈ 10.4 µM) | 4 (≈ 20.7 µM) |
